Measurements as given in PubChem BioAssay (NCI).
Several values for one entry are separate records, joined by “and”; a condition that tells them apart may be missing. Equal values may be shown once.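 Following 48 hours of exposure in 96-well plates, responses at five concentrations were used to interpolate endpoints linearly. GI50: concentration for 50% inhibition of growth. TGI denotes the concentration required for complete inhibition of growth.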

Experiments:
Assay in all cases: growth of human tumour cells (NCI), 48 h
A498 renal = test system: A498 renal
BT-549 breast = test system: BT-549 breast
CCRF-CEM leukemia = test system: CCRF-CEM leukemia
DU-145 prostate = test system: DU-145 prostate
HCC-2998 colon = test system: HCC-2998 colon
HCT-116 colon = test system: HCT-116 colon
KM12 colon = test system: KM12 colon
M14 melanoma = test system: M14 melanoma
MDA-MB-435 = test system: MDA-MB-435
SN12C renal = test system: SN12C renal

SMILES | TGI (A498 renal) [µM] | GI50 (BT-549 breast) [µM] | TGI (BT-549 breast) | GI50 (CCRF-CEM leukemia) [µM] | TGI (CCRF-CEM leukemia) [µM] | GI50 (DU-145 prostate) [µM] | TGI (DU-145 prostate) | TGI (HCC-2998 colon) [µM] | TGI (HCT-116 colon) | GI50 (KM12 colon) [µM] | TGI (KM12 colon) | GI50 (M14 melanoma) [µM] | TGI (M14 melanoma) | GI50 (MDA-MB-435) [µM] | TGI (MDA-MB-435) | GI50 (SN12C renal) [µM] | TGI (SN12C renal) | GI50 (A498 renal) [µM] | GI50 (HCC-2998 colon) [µM] | GI50 (HCT-116 colon) [µM]
COc1ccc2nc3cc([N+](=O)[O-])ccc3c(NNc3ccccc3)c2c1 | 13.2 | 15.9 | 35.7 µM and > 100 µM | 10.9 | > 100 | 19.7 | 77.8 µM and > 100 µM | 46.3 | 28.2 µM and 28.6 µM | 6.25 | 19.6 µM and 32.4 µM | 24.2 | 75.2 µM and > 100 µM | 13.4 | 35.3 µM and > 100 µM | 18.9 | 71.1 µM and > 74.9 µM |  |  | 
NC(Cc1c[nH]c2ccc(F)cc12)C(=O)O (configuration not stated) | 1630 | 580 | 1620 µM | 1090 | > 2500 | 1310 | > 2500 µM | > 2500 | > 2500 µM | 760 | > 2500 µM | 643 | > 2500 µM | 785 | > 2500 µM | 918 | > 2500 µM | 580 | 1810 | 853
O=C(CCl)Nc1cc(Cl)c(Cl)cc1Cl | > 10 |  | 3.53 µM |  | 5.99 |  | 7.06 µM | > 10 | 2.94 µM |  | 0.83 µM |  | 2.96 µM |  | 2.77 µM |  | 2.96 µM |  |  | 
OCc1ccc(N2CCc3cc(F)ccc3C2)cc1Cl | 0.0756 | 15.1 | 28.7 µM | 3.9 | 28.9 | 6.67 | 20.6 µM | 12.8 | 11.2 µM | 13.2 | 27.3 µM | 16.2 | 30.7 µM | 13.1 | 27.6 µM | 10.9 | 23.2 µM | 0.0206 | 1.58 | < 0.0166
COc1ccc(C(=O)O[C@H]2[C@H](O[C@H]3[C@@H](O)COC(O[C@H]4C[C@H]5[C@@H]6CC=C7C[C@@H](O)CC[C@]7(C)[C@H]6CC[C@]5(C)[C@H]4[C@H](C)C(=O)CCC(C)C)[C@@H]3OC(C)=O)OC[C@@H](O)[C@@H]2O)c(C)c1 (some centres not stated) | < 0.01 | < 0.01 | 10.7 µM | < 0.01 | 0.13 | 1.26 | 36.4 µM | 25.2 | 15.8 µM | 0.0674 | 21.3 µM | < 0.01 | 0.0102 µM | < 0.01 | 0.0774 µM | 11.7 | 29.7 µM | < 0.01 | 4.1 | < 0.01
Cc1ccc(-c2nc(N3CCNCC3)c3oc(-c4ccccc4)nc3n2)cc1 | 28.8 | 13.8 | 31.6 µM | 2.16 | 4.79 | 1.74 | 3.19 µM | > 100 | 3.29 µM | 1.85 | 3.51 µM | 1.78 | 3.31 µM | 1.76 | 3.22 µM | 1.8 | 3.3 µM | 14.5 | > 100 | 1.85
